Reference: paper PMC5218480 (PLoS ONE, 2017)

System: MV-4-11 cells
Assay: Gene expression microarray analysis (Affymetrix PrimeView) and GSEA
Type: cell-based, human
Parameters: RFU PODN (11730768_x_at) / Fold change /veh PODN (11730768_x_at) / RFU LINC00158 (11744669_a_at) / Fold change /veh LINC00158 (11744669_a_at) / RFU DUSP10 (11751237_a_at) / Fold change /veh DUSP10 (11751237_a_at) / RFU ID3 (11757404_x_at) / Fold change /veh ID3 (11757404_x_at) / RFU PLEKHG5 (11737974_s_at) / Fold change /veh PLEKHG5 (11737974_s_at) / RFU LRRC4B (11730491_at) / Fold change /veh LRRC4B (11730491_at) / RFU GIMAP4 (11747438_a_at) / Fold change /veh GIMAP4 (11747438_a_at) / RFU KRT8 (11758183_x_at) / Fold change /veh KRT8 (11758183_x_at) / RFU CNN1 (11734310_a_at) / Fold change /veh CNN1 (11734310_a_at) / RFU VPS37D (11726825_at) / Fold change /veh VPS37D (11726825_at) / RFU C10orf10 (11716522_x_at) / Fold change /veh C10orf10 (11716522_x_at) / RFU KIR2DL2 /// KIR2DL4 /// KIR2DL5A /// KIR2DL5B /// KIR2DS1 /// KIR2DS2 /// KIR2DS3 /// KIR2DS4 /// KIR3DL3 /// KIR3DL3 /// KIR3DS1 (11738374_at) / Fold change /veh KIR2DL2 /// KIR2DL4 /// KIR2DL5A /// KIR2DL5B /// KIR2DS1 /// KIR2DS2 /// KIR2DS3 /// KIR2DS4 /// KIR3DL3 /// KIR3DL3 /// KIR3DS1 (11738374_at) / RFU C1QL1 (11718748_at) / Fold change /veh C1QL1 (11718748_at) / RFU TMPRSS4 (11747572_a_at) / Fold change /veh TMPRSS4 (11747572_a_at) / RFU HAMP (11756126_x_at) / Fold change /veh HAMP (11756126_x_at) / RFU RNFT2 (11725882_a_at) / Fold change /veh RNFT2 (11725882_a_at) / RFU NR4A2 (11747474_a_at) / Fold change /veh NR4A2 (11747474_a_at) / RFU ABCC12 (11746883_a_at) / Fold change /veh ABCC12 (11746883_a_at) / RFU TMEM136 (11760407_x_at) / Fold change /veh TMEM136 (11760407_x_at) / RFU CLDN22 /// WWC2 (11732394_at) / Fold change /veh CLDN22 /// WWC2 (11732394_at) / RFU HLA-DPB1 (11760878_x_at) / Fold change /veh HLA-DPB1 (11760878_x_at) / RFU SPINT1 (11716480_a_at) / Fold change /veh SPINT1 (11716480_a_at) / RFU GAP43 (11754022_s_at) / Fold change /veh GAP43 (11754022_s_at) / RFU A4GNT (11735810_at) / Fold change /veh A4GNT (11735810_at) / RFU PRB3 (11715151_x_at) / Fold change /veh PRB3 (11715151_x_at) / RFU TUBB4B (11761932_at) / Fold change /veh TUBB4B (11761932_at) / RFU CAPN14 (11732068_a_at) / Fold change /veh CAPN14 (11732068_a_at) / RFU TMCC2 (11721928_a_at) / Fold change /veh TMCC2 (11721928_a_at) / RFU IRGQ (11745062_a_at) / Fold change /veh IRGQ (11745062_a_at) / RFU FAM174B (11720279_a_at) / Fold change /veh FAM174B (11720279_a_at) / RFU TMPRSS4 (11748680_a_at) / Fold change /veh TMPRSS4 (11748680_a_at) / RFU FAM212B (11763350_a_at) / Fold change /veh FAM212B (11763350_a_at) / RFU PLEKHG5 (11743358_a_at) / Fold change /veh PLEKHG5 (11743358_a_at) / RFU ZSCAN30 (11745921_a_at) / Fold change /veh ZSCAN30 (11745921_a_at) / RFU CMKLR1 (11741424_a_at) / Fold change /veh CMKLR1 (11741424_a_at) / RFU LOC101060620 /// MAPK8IP1 (11723275_at) / Fold change /veh LOC101060620 /// MAPK8IP1 (11723275_at) / RFU SPTSSB (11747773_x_at) / Fold change /veh SPTSSB (11747773_x_at) / RFU PRSS12 (11739890_at) / Fold change /veh PRSS12 (11739890_at) / RFU BIN1 (11741810_x_at) / Fold change /veh BIN1 (11741810_x_at) / RFU WNT11 (11732464_a_at) / Fold change /veh WNT11 (11732464_a_at) / RFU C10orf10 (11716521_a_at) / Fold change /veh C10orf10 (11716521_a_at) / RFU C5orf56 (11738089_at) / Fold change /veh C5orf56 (11738089_at) / RFU CYB561 (11721691_x_at) / Fold change /veh CYB561 (11721691_x_at) / RFU ANKRD19P (11752326_a_at) / Fold change /veh ANKRD19P (11752326_a_at) / RFU OR2T12 /// OR2T33 /// OR2T8 (11738714_s_at) / Fold change /veh OR2T12 /// OR2T33 /// OR2T8 (11738714_s_at) / RFU VCAN (11748164_a_at) / Fold change /veh VCAN (11748164_a_at) / RFU JSRP1 (11732532_at) / Fold change /veh JSRP1 (11732532_at) / RFU KRTAP10-11 (11738290_x_at) / Fold change /veh KRTAP10-11 (11738290_x_at) / RFU MYO3A (11730013_a_at) / Fold change /veh MYO3A (11730013_a_at) / RFU EBF3 (11725865_a_at) / Fold change /veh EBF3 (11725865_a_at) / RFU CAMK2N1 (11719241_x_at) / Fold change /veh CAMK2N1 (11719241_x_at) / RFU C5orf56 (11738088_a_at) / Fold change /veh C5orf56 (11738088_a_at) / RFU OLFML3 (11715873_a_at) / Fold change /veh OLFML3 (11715873_a_at) / RFU LOC100653217 /// NTM (11731650_a_at) / Fold change /veh LOC100653217 /// NTM (11731650_a_at) / RFU MAPK11 (11762145_a_at) / Fold change /veh MAPK11 (11762145_a_at) / RFU FIZ1 (11724087_x_at) / Fold change /veh FIZ1 (11724087_x_at) / RFU OASL (11726364_x_at) / Fold change /veh OASL (11726364_x_at) / RFU SOX15 (11748057_x_at) / Fold change /veh SOX15 (11748057_x_at) / RFU CD79A (11719716_a_at) / Fold change /veh CD79A (11719716_a_at) / RFU HIST1H1D (11736915_at) / Fold change /veh HIST1H1D (11736915_at) / RFU CASKIN2 (11723855_a_at) / Fold change /veh CASKIN2 (11723855_a_at) / RFU LOC730098 (11760151_x_at) / Fold change /veh LOC730098 (11760151_x_at) / RFU OR4N2 (11742367_at) / Fold change /veh OR4N2 (11742367_at) / RFU PRRT2 (11749266_a_at) / Fold change /veh PRRT2 (11749266_a_at) / RFU SNX32 (11753110_a_at) / Fold change /veh SNX32 (11753110_a_at) / RFU CDHR5 (11726645_a_at) / Fold change /veh CDHR5 (11726645_a_at) / RFU RCAN1 (11760418_a_at) / Fold change /veh RCAN1 (11760418_a_at) / RFU FAM167A (11723789_a_at) / Fold change /veh FAM167A (11723789_a_at) / RFU FAM26E (11764081_at) / Fold change /veh FAM26E (11764081_at) / RFU ISYNA1 (11749810_s_at) / Fold change /veh ISYNA1 (11749810_s_at) / RFU ACY1 (11761880_at) / Fold change /veh ACY1 (11761880_at) / RFU 11764098_at / Fold change /veh 11764098_at / RFU SAMD14 (11745864_x_at) / Fold change /veh SAMD14 (11745864_x_at) / RFU NPB (11741838_a_at) / Fold change /veh NPB (11741838_a_at) / RFU TMPRSS6 (11731388_a_at) / Fold change /veh TMPRSS6 (11731388_a_at) / RFU KRTAP10-2 (11738614_at) / Fold change /veh KRTAP10-2 (11738614_at) / RFU ARHGAP8 /// PRR5-ARHGAP8 (11727945_x_at) / Fold change /veh ARHGAP8 /// PRR5-ARHGAP8 (11727945_x_at) / RFU KRTAP5-7 /// NADSYN1 (11734609_at) / Fold change /veh KRTAP5-7 /// NADSYN1 (11734609_at) / RFU RASL12 (11751679_a_at) / Fold change /veh RASL12 (11751679_a_at) / RFU CDKN2B (11736163_a_at) / Fold change /veh CDKN2B (11736163_a_at) / RFU PRF1 (11729649_at) / Fold change /veh PRF1 (11729649_at) / RFU, ZNF638 /// ZNF638-IT1 / Fold change vs veh, ZNF638 /// ZNF638-IT1 / RFU, PANK3 / Fold change vs veh, PANK3 / RFU, SH3YL1 / Fold change vs veh, SH3YL1 / RFU, ZEB2 / Fold change vs veh, ZEB2 / RFU, NRIP1 / Fold change vs veh, NRIP1 / RFU, PTTG1IP / Fold change vs veh, PTTG1IP / RFU, CAPN2 / Fold change vs veh, CAPN2 / RFU, MED14 / Fold change vs veh, MED14 / RFU, SNORA58 / Fold change vs veh, SNORA58 / RFU, C1orf63 / Fold change vs veh, C1orf63 / RFU, LRRFIP1 / Fold change vs veh, LRRFIP1 / RFU, NDUFAF7 / Fold change vs veh, NDUFAF7 / RFU, SLC12A2 / Fold change vs veh, SLC12A2 / RFU, IBTK / Fold change vs veh, IBTK / RFU, ESF1 / Fold change vs veh, ESF1 / Fold change vs veh, TMEM50B / RFU, TAOK1 / Fold change vs veh, TAOK1 / RFU, ACBD3 / Fold change vs veh, ACBD3 / RFU, TMA16 / Fold change vs veh, TMA16 / RFU, RWDD3 / Fold change vs veh, RWDD3 / RFU, BCAT1 / Fold change vs veh, BCAT1 / RFU, EDEM3 / Fold change vs veh, EDEM3 / RFU, TMEM33 / Fold change vs veh, TMEM33 / RFU, WDR75 / Fold change vs veh, WDR75 / RFU, AHCTF1 / Fold change vs veh, AHCTF1 / RFU, TFRC / Fold change vs veh, TFRC / RFU, ZDHHC17 / Fold change vs veh, ZDHHC17 / RFU, NOM1 / Fold change vs veh, NOM1 / RFU, ARL8B / Fold change vs veh, ARL8B / RFU, ZBTB11 / Fold change vs veh, ZBTB11 / RFU, TAMM41 / Fold change vs veh, TAMM41 / RFU, KIAA1704 /// LOC100996395 / Fold change vs veh, KIAA1704 /// LOC100996395 / RFU, ING1 / Fold change vs veh, ING1 / RFU, TRMT61B / Fold change vs veh, TRMT61B / RFU, FUBP3 / Fold change vs veh, FUBP3 / RFU, TP53 / Fold change vs veh, TP53 / RFU, TNKS2 / Fold change vs veh, TNKS2 / RFU, ZFP14 / Fold change vs veh, ZFP14 / RFU, ACTR2 / Fold change vs veh, ACTR2 / RFU, PPP3R1 / Fold change vs veh, PPP3R1 / RFU, PIK3R1 / Fold change vs veh, PIK3R1 / RFU, HNRNPA1 / Fold change vs veh, HNRNPA1 / RFU, RNF170 / Fold change vs veh, RNF170 / RFU, ZNF28 / Fold change vs veh, ZNF28 / RFU, RNGTT / Fold change vs veh, RNGTT / RFU, OGT / Fold change vs veh, OGT / RFU, BRD1 / Fold change vs veh, BRD1 / RFU, MARS / Fold change vs veh, MARS / RFU, ZNF655 / Fold change vs veh, ZNF655 / RFU, FAHD1 / Fold change vs veh, FAHD1 / RFU, BDP1 / Fold change vs veh, BDP1 / RFU, LRRCC1 / Fold change vs veh, LRRCC1 / RFU, ARID1A / Fold change vs veh, ARID1A / RFU, ZNF146 / Fold change vs veh, ZNF146 / RFU, ZNF330 / Fold change vs veh, ZNF330 / RFU, GPN3 / Fold change vs veh, GPN3 / RFU, C9orf123 / Fold change vs veh, C9orf123 / RFU, N4BP2L2 / Fold change vs veh, N4BP2L2 / RFU, ARFIP1 / Fold change vs veh, ARFIP1 / RFU, FAM179B / Fold change vs veh, FAM179B / RFU, BCL10 / Fold change vs veh, BCL10 / RFU, UHRF1BP1L / Fold change vs veh, UHRF1BP1L / RFU, BET1 / Fold change vs veh, BET1 / RFU, CNOT2 / Fold change vs veh, CNOT2 / RFU, ZNF268 / Fold change vs veh, ZNF268 / Fold change vs veh, ZNF507 / RFU, DGCR2 / Fold change vs veh, DGCR2 / RFU, WDSUB1 / Fold change vs veh, WDSUB1 / Fold change vs veh, HSP90B1 /// MIR3652 / RFU, ADSS / Fold change vs veh, ADSS / RFU, GK / Fold change vs veh, GK / RFU, ZNF148 / Fold change vs veh, ZNF148 / RFU, TAF9 / Fold change vs veh, TAF9 / RFU, SLC1A5 / Fold change vs veh, SLC1A5 / RFU, SLMO2 / Fold change vs veh, SLMO2 / RFU, ABCC4 / Fold change vs veh, ABCC4 / RFU, LOC101060439 /// RAP1B / Fold change vs veh, LOC101060439 /// RAP1B / RFU, RFX7 / Fold change vs veh, RFX7 / RFU, GTPBP10 / Fold change vs veh, GTPBP10 / RFU, CNEP1R1 / Fold change vs veh, CNEP1R1 / RFU, BIVM-ERCC5 /// ERCC5 / Fold change vs veh, BIVM-ERCC5 /// ERCC5 / RFU, ILF3 / Fold change vs veh, ILF3 / RFU 11762660_at / Fold change /veh 11762660_at / RFU VCAN (11757783_s_at) / Fold change /veh VCAN (11757783_s_at) / RFU DDX43 (11728927_at) / Fold change /veh DDX43 (11728927_at) / RFU KRT8 (11758188_x_at) / Fold change /veh KRT8 (11758188_x_at) / RFU NKD1 (11759106_at) / Fold change /veh NKD1 (11759106_at) / RFU SRD5A1 (11742802_a_at) / Fold change /veh SRD5A1 (11742802_a_at) / RFU TPSAB1 /// TPSB2 (11721975_s_at) / Fold change /veh TPSAB1 /// TPSB2 (11721975_s_at) / RFU GSTM3 (11746129_a_at) / Fold change /veh GSTM3 (11746129_a_at) / RFU IL23R (11737362_x_at) / Fold change /veh IL23R (11737362_x_at) / RFU TMEM51 (11727254_a_at) / Fold change /veh TMEM51 (11727254_a_at) / RFU PIWIL2 (11732686_x_at) / Fold change /veh PIWIL2 (11732686_x_at) / RFU ORM1 (11744905_x_at) / Fold change /veh ORM1 (11744905_x_at) / RFU CCDC152 (11743942_at) / Fold change /veh CCDC152 (11743942_at) / RFU ECM1 (11717891_a_at) / Fold change /veh ECM1 (11717891_a_at) / RFU IL23R (11748794_a_at) / Fold change /veh IL23R (11748794_a_at) / RFU TNFAIP8L3 (11732012_x_at) / Fold change /veh TNFAIP8L3 (11732012_x_at) / RFU MBOAT4 (11741988_at) / Fold change /veh MBOAT4 (11741988_at) / RFU 11764193_at / Fold change /veh 11764193_at / RFU TMEM53 (11763286_at) / Fold change /veh TMEM53 (11763286_at) / RFU MAGEB2 (11727129_at) / Fold change /veh MAGEB2 (11727129_at) / RFU TMEM200A (11744735_a_at) / Fold change /veh TMEM200A (11744735_a_at) / RFU CCDC152 (11751479_a_at) / Fold change /veh CCDC152 (11751479_a_at) / RFU FAM211A (11726209_a_at) / Fold change /veh FAM211A (11726209_a_at) / RFU RGS16 (11746705_a_at) / Fold change /veh RGS16 (11746705_a_at) / RFU VCAN (11755009_s_at) / Fold change /veh VCAN (11755009_s_at) / RFU RHOB (11743442_s_at) / Fold change /veh RHOB (11743442_s_at) / RFU RGS16 (11720943_a_at) / Fold change /veh RGS16 (11720943_a_at) / RFU RGS16 (11720944_at) / Fold change /veh RGS16 (11720944_at) / RFU, VPS4B / Fold change vs veh, VPS4B / RFU, CREB1 / Fold change vs veh, CREB1 / RFU, DNAJC13 / Fold change vs veh, DNAJC13 / RFU, GNAQ / Fold change vs veh, GNAQ / RFU, CDK5R1 / Fold change vs veh, CDK5R1 / RFU, ZRANB3 / Fold change vs veh, ZRANB3 / RFU, CUL4A / Fold change vs veh, CUL4A / RFU, CCNY / Fold change vs veh, CCNY / RFU, UFL1 / Fold change vs veh, UFL1 / RFU, COG3 / Fold change vs veh, COG3 / RFU, DIAPH2 / Fold change vs veh, DIAPH2 / RFU, SKA2 / Fold change vs veh, SKA2 / RFU, AFF3 / Fold change vs veh, AFF3 / RFU, LMF1 / Fold change vs veh, LMF1 / RFU, IPO11 / Fold change vs veh, IPO11 / RFU, DFFB / Fold change vs veh, DFFB / RFU, FOXP1 / Fold change vs veh, FOXP1 / RFU, CARD8 / Fold change vs veh, CARD8 / RFU, STRN3 / Fold change vs veh, STRN3 / RFU, ADK / Fold change vs veh, ADK / RFU, RASSF2 / Fold change vs veh, RASSF2 / RFU, WIPF1 / Fold change vs veh, WIPF1 / RFU, LARP1B / Fold change vs veh, LARP1B / RFU, RASA1 / Fold change vs veh, RASA1 / RFU, RB1 / Fold change vs veh, RB1 / RFU, PPFIA1 / Fold change vs veh, PPFIA1 / RFU, MAT2A / Fold change vs veh, MAT2A / RFU, CCT5 / Fold change vs veh, CCT5 / RFU, WDR92 / Fold change vs veh, WDR92 / RFU, CUX1 / Fold change vs veh, CUX1 / RFU, TTC7A / Fold change vs veh, TTC7A / RFU, TMEM135 / Fold change vs veh, TMEM135 / RFU, DEPTOR / Fold change vs veh, DEPTOR / RFU, CPM / Fold change vs veh, CPM / RFU, DNAJB6 / Fold change vs veh, DNAJB6 / RFU, CACNA2D3 / Fold change vs veh, CACNA2D3 / RFU, DTX4 / Fold change vs veh, DTX4 / RFU, TFCP2 / Fold change vs veh, TFCP2 / RFU, GMCL1 /// GMCL1P1 / Fold change vs veh, GMCL1 /// GMCL1P1 / RFU, AEBP2 / Fold change vs veh, AEBP2 / RFU, SNHG1 /// SNORD22 /// SNORD25 /// SNORD26 /// SNORD27 /// SNORD28 /// SNORD29 /// SNORD31 / Fold change vs veh, SNHG1 /// SNORD22 /// SNORD25 /// SNORD26 /// SNORD27 /// SNORD28 /// SNORD29 /// SNORD31 / Fold change (Aza/veh), C12orf56 (ProbeSet 11735607_a_at) / Fold change (ACY-1035/veh), C12orf56 (ProbeSet 11735607_a_at) / Fold change (Aza/veh), FGFR1OP (ProbeSet 11751329_s_at) / Fold change (ACY-1035/veh), FGFR1OP (ProbeSet 11751329_s_at) / Fold change (Aza/veh), VPS36 (ProbeSet 11739960_a_at) / Fold change (ACY-1035/veh), VPS36 (ProbeSet 11739960_a_at) / RFU SYPL1 (11715823_x_at) / Fold change /veh SYPL1 (11715823_x_at) / RFU IGFBP7 (11715501_s_at) / Fold change /veh IGFBP7 (11715501_s_at) / RFU REEP3 (11722064_at) / Fold change /veh REEP3 (11722064_at) / RFU IGLL1 (11728026_x_at) / Fold change /veh IGLL1 (11728026_x_at): dose or concentration left out as unconfirmed
Settings: MV-4-11 cells, 48 hours

Nc1ncn([C@@H]2O[C@H](CO)[C@@H](O)[C@H]2O)c(=O)n1 [azacitidine]
RFU CASKIN2 (11723855_a_at): 31.47 RFU
